From patent US11034666B2, “Anti-inflammatory and antitumor 2-oxothiazoles and 2-oxothiophenes compounds” (Avexxin AS, priority 2013, dated 2021)

What was measured:
Assay type in all cases: in vivo, male DBA/1 mice
[1] = test system: collagen-induced arthritis (CIA) mouse model; assay: Therapeutic collagen-induced arthritis (CIA) study; conditions: Days 36 to 41; Compound A 30 mg/kg ip daily; Enbrel 25 mg/kg twice a week
Source text: The therapeutic effect of Compound A on CIA model in male DBA/1 mice following ip administration, treatment starting 7 days after the last immunization was explored. CIA developed rapidly in mice immunized with CII, with maximum AI of 10.2 observed at 39 days post immunization. The AI and incidence of vehicle- and Compound A treated groups increased in a time-dependent mode from Days 29 to 41. […] Compound A and Enbrel performed equally well; there were no significant difference between these treatments groups.
Separate prophylactic and therapeutic efficacy studies of COMPOUND A were performed. […] Body weights were measured and recorded prior to randomization and then once daily during the study. Food consumption was measured and recorded daily. […] Necropsy examinations were performed at study termination; plasma samples were collected, organ weights were recorded […]
CIA Assessment and Treatment. CIA was assessed in mice by two blinded observers to measure paw swelling with a capacity measurement method on Day 0, Day 20, Day 22, Day 25, Day 27, Day 29, Day 32, Day 34, Day 36, Day 39 and Day 41 after the first injection. […] However, the values measured were not included in the mean value calculations of the main groups. […]

[2] = test system: collagen-induced arthritis (CIA) mouse model; assay: Prophylactic collagen-induced arthritis (CIA) study
Protocol: The prophylactic effect of Compound A on CIA model in male DBA/1 mice^57 following intraperitoneal (ip) administration, treatment starting 1 hour prior to the last immunization was studied. A study comparing naïve mice (healthy, non-CIA, non-treated), vehicle-treated mice (CIA with DMSO, ip) and CIA mice treated daily with Compound A (7.5 mg/kg, ip) or MTX (0.3 mg/kg, ip) was performed. CIA developed rapidly in mice immunized with CII. In the prophylactic study, a 100% incidence of CIA was observed by day 29 in CII-immunized mice, with maximum AI of 8.55 observed at 41 days post immunization. The AI and incidence of all groups increased in a time-dependent mode from day 25 to day 41.
Separate prophylactic and therapeutic efficacy studies of COMPOUND A were performed. Methotrexate (MTX) (Jiangsu Hengrui Medicine Co, #11041411), Enbrel (Boehringer Ingelheim Pharma KG, # F39487), and vehicle (DMSO 100%, Sigma Aldrich # D2650) were administered to all groups via intraperitoneal injection once daily at a dose volume of 2 mL/kg. Observations for morbidity, mortality, injury, and the availability of food and water were conducted twice daily for all animals. Clinical observations were conducted daily during the study. Body weights were measured and recorded prior to randomization and then once daily during the study. Food consumption was measured and recorded daily. Biopsies for mid-term histology analysis were obtained on Day 13 in the prophylactic study. Necropsy examinations were performed at study termination; plasma samples were collected, organ weights were recorded
(§1) For the prophylactic and the therapeutic studies, CIA was induced in male DBA/1 mice (except naïve mice) by immunization with 0.1 mL emulsion containing an equal volume of bovine type II collagen solution (2 mg/mL) and Freuds Complete Adjuvant at the tail base. The first injection was given on Day 0 and the second injection as booster was given on Day 21 (41-43). COMPOUND A, vehicle (DMSO) and MTX (0.3 mg/kg) were administered daily, Enbrel (25 mg/kg) was administrated twice a week. For the prophylactic study, treatment started one hour before the second collagen injection and continued for 21 days except for the histology groups that were sacrificed at Day 13 ([…]). For the therapeutic study, treatment started at Day 28 and continued for 14 days.
CIA Assessment and Treatment. CIA was assessed in mice by two blinded observers to measure paw swelling with a capacity measurement method on Day 0, Day 20, Day 22, Day 25, Day 27, Day 29, Day 32, Day 34, Day 36, Day 39 and Day 41 after the first injection. The occurrence of arthritis was observed by scoring all paws for severity of erythema and swelling, using a clinical score ranging from 0 (no swelling) to 4 (severe swelling and erythema). The physical condition of the animals was observed daily. Scores and overall evaluation of the histology group arms were performed in the same way as the main groups. However, the values measured were not included in the mean value calculations of the main groups. The YLS-7B Foot Volume Measuring Instrument (Huaibei China Bio Equipment) was used to measure the foot volume of mice. The occurrence of arthritis was observed by scoring all paws for severity of erythema and swelling, using a clinical score ranging from 0 (no swelling) to 4 (severe swelling and erythema), i.e. yielding maximum arthritic index (AI) score 16 (46).
Measurement of the histopathology and clinical observations. At the end of the studies, one hind foot of each mouse was collected for histopathology. The foot including the ankle was fixed in 10% neutral formalin. The ankle joints were decalcified, dehydrated, embedded in paraffin, sectioned and stained with routine hematoxylin-eosin. The sections were studied using light microscopy (10×10 and 20×10 magnifications). Arthritis damage (histological damage score) was evaluated and scored by an investigator blinded for the treatment regimen. […]

[3] = test system: PGE2; assay: Plasma PGE2 EIA, therapeutic CIA study
Protocol: There were no significant differences between the treatment groups (p>0.05).
(§2) PGE2 EIA analysis of blood plasma from the prophylactic and therapeutic CIA studies was performed according to kit protocol. Plasma samples were diluted 1:1000-1:6000 in EIA buffer and allowed to hybridize over-night (18 hrs, 4° C.). The plate was read using a Multiscan plate reader (Ascent Labsystems) (OD550 nm). The corresponding Ascent software for Multiscan, Version 2.4.1 was used to obtain the data. PGE2 levels for all treatments are shown relative to the DMSO-treated vehicle arthritic mice (n=10-11 mice in each category±SD).
as §1

[4] = test system: PGE2; assay: Plasma PGE2 EIA, prophylactic CIA study
Protocol: PGE2 is recognized as an important contributor to the joint inflammation in rheumatoid arthritis,^60 and we investigated if plasma PGE2 levels were changed in response to treatment. […] There were no significant differences between the treatment groups (p>0.05).
as §2, §1

[5] = hind paw, Compound A 7.5 mg/kg, MTX 0.3 mg/kg

CCCCCCCCc1ccc(OCC(=O)c2nc(C(=O)OC)cs2)cc1 [Compound A, Methyl 2-(2-(4-octylphenoxy)acetyl)thiazole-4-carboxylate]
arthritic index (AI) in comparison to the CIA control group (in words) [1]: significantly decreased
arthritic index (AI) in comparison to the CIA control group (in words) ([2]; Days 32 to 41, Compound A 7.5 mg/kg ip daily, MTX 0.3 mg/kg ip daily): significantly reduced
articular cavity and peripheral tissue inflammatory cell infiltration, histopathology vs vehicle (in words) [2, 5]: reduced
capillary and synovial hyperplasia, histopathology vs vehicle (in words) [2, 5]: reduced
cartilage damage, histopathology vs vehicle (in words) [2, 5]: no significant effect
plasma PGE2 level ([3]; therapeutic CIA study, Compound A 30 mg/kg, Enbrel 25 mg/kg, vehicle 231.1±110, mean ± SD): 139 ± 55 ng/mL
reduction of plasma PGE2 levels ([3]; therapeutic mode, vs vehicle): about 40%
plasma PGE2 level ([4]; prophylactic CIA study, Compound A 7.5 mg/kg, MTX 0.3 mg/kg, vehicle 223.4±107, mean ± SD): 139.8 ± 92 ng/mL
reduction of plasma PGE2 levels ([4]; prophylactic mode, vs vehicle): about 40%
